The values that follow come from ChEMBL document CHEMBL6182910, “Design, Synthesis, and Biological Evaluation of 4-(Difluoromethyl)-1H-imidazole-5-carboxylic Acids/4-(3-Cyanophenoxy)pyrimidine-5-carboxylic Acids as P2Y1 Receptor Antagonists for Ischemic Stroke Treatment” (J Med Chem, 2025).

The subject of data set [1] is Rattus norvegicus. Description: Anti-platelet aggregation in Sprague-Dawley rat assessed as inhibition of ADP-induced platelet aggregation at 10 mg/kg, po measured for 15 mins in presence of 10 uM ADP by cell counter analysis relative to control. It counts as functional. The conditions noted are these: 0.25 h.
Another data set concerns Plasma. Description: Anti-platelet aggregation in platelet-rich plasma of male Japanese white rabbit assessed as inhibition of ADP-induced platelet aggregation preincubated for 15 mins followed by ADP addition measured up to 10 mins by Born's turbidometric method. It counts as functional, cell-free. As to conditions: Oryctolagus cuniculus.
Data set [2] deals with Rattus norvegicus. Description: Neuroprotective activity in MCAO-induced brain damage Sprague-Dawley rat model assessed as reduction in neurological deficit scores at 10 mg/kg, iv administered immediately after arterial occlusion measured after 24 hrs by Longa's method. It is filed as functional, organism-based.
Data set [3] concerns Rattus norvegicus. Description: Neuroprotective activity in MCAO-induced brain damage Sprague-Dawley rat model assessed as reduction in brain infarction size administered intravenously immediately after arterial occlusion measured after 24 hrs by TTC staining based analysis. The conditions noted are these: route iv. It counts as functional.
Data set [4] is described as follows: AUC in plasma of male Sprague-Dawley rat at 10 mg/kg, iv measured for 0.083 to 24 hrs by LC-MS/MS analysis. It is filed as ADME, organism-based. The conditions noted are these: time 0.083-24 hrs.
Data set [5] can be described thus: AUC (0 to infinity) male Sprague-Dawley rat at 10 mg/kg, iv measured up to 24 hrs by LC-MS/MS analysis. It counts as ADME, organism-based. The conditions noted are these: in vivo.
A short description of data set [6]: Tmax male Sprague-Dawley rat at 10 mg/kg, po measured up to 24 hrs by LC-MS/MS analysis. The conditions noted are these: in vivo. It counts as ADME, organism-based.
Data set [7] has as its system Rattus norvegicus. Description: Neuroprotective activity in MCAO-induced brain damage Sprague-Dawley rat model assessed as clear nucleoli with uniform staining at 2.5 to 10 mg/kg, iv administered immediately after arterial occlusion measured after 24 hrs by H and E staining based analysis. It counts as functional, organism-based. As to conditions: dose 2.5-10 mg/kg.

Data set [8] in a line: Clearance male Sprague-Dawley rat at 10 mg/kg, iv measured up to 24 hrs by LC-MS/MS analysis. The conditions noted are these: in vivo. It counts as ADME, organism-based.
The nature of data set [9]: MRT (0 to infinity) male Sprague-Dawley rat at 10 mg/kg, iv measured up to 24 hrs by LC-MS/MS analysis. It counts as ADME, organism-based. As to conditions: in vivo.
In data set [10] the test system is Rattus norvegicus. Description: Neuroprotective activity in MCAO-induced brain damage Sprague-Dawley rat model assessed as reduction in neurological damage administered intravenously immediately after arterial occlusion measured after 24 hrs by Longa's method. It counts as functional, organism-based. The conditions noted are these: dose 2.5-10 mg/kg, route iv.

A further data set deals with T1, CYP2A6 (Homo sapiens, UniProt P11509).
T1 sequence (P11509 whole entry): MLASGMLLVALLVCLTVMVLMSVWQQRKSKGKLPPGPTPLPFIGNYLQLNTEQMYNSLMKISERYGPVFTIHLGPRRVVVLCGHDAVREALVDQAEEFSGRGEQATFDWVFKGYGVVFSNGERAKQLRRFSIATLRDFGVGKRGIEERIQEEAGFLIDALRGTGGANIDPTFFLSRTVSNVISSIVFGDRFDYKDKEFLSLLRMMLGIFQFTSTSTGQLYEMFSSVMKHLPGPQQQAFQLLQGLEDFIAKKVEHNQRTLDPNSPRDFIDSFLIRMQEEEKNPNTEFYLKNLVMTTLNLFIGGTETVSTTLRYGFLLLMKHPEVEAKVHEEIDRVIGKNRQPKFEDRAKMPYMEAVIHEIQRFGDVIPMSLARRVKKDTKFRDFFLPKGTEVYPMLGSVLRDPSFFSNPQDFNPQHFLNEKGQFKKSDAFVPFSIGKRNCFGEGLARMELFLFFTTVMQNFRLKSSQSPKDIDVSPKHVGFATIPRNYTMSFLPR
Description: Inhibition of CYP2A6 in human liver microsomes using coumarin as substrate at 10 uM preincubated for 5 min followed by NADPH addition measured after 120 mins by LC-MS/MS analysis relative to control. It is filed as ADME, Microsome. The conditions noted are these: probe coumarin, time 125 min.

A short description of data set [11]: Half life male Sprague-Dawley rat at 10 mg/kg, iv measured up to 24 hrs by LC-MS/MS analysis. The conditions noted are these: in vivo. It is filed as ADME, organism-based.
A short description of data set [12]: Oral bioavailability male Sprague-Dawley rat at 10 mg/kg measured up to 24 hrs by LC-MS/MS analysis. It is filed as ADME, organism-based. As to conditions: in vivo.
Data set [13] is described as follows: Ratio of AUC in brain to plasma of male Sprague-Dawley rat at 10 mg/kg, iv measured for 0.083 to 24 hrs by LC-MS/MS analysis. It counts as ADME, organism-based. The conditions noted are these: brain and plasma, time 0.083-24 hrs, read-out: Ratio AUC.
Another data set has as its system HT-22. In words: Neuroprotective activity against H2O2-induced oxidative stress in mouse HT-22 cells assessed as increase in nuclear Nrf2 level at 10 uM preincubated for 2 hrs followed by H2O2 addition measured after 16 hrs by Western blot analysis. It counts as functional, cell-based. As to conditions: time 18.0 hrs.
For a further data set, the target named is CYP3A4 (Homo sapiens, UniProt P08684). Description: Inhibition of CYP3A4 in human liver microsomes using nifedipine as substrate at 10 uM preincubated for 5 min followed by NADPH addition measured after 120 mins by LC-MS/MS analysis relative to control. It counts as ADME, Microsome. The conditions noted are these: probe nifedipine, time 125 min. For orientation: Microsomes from liver hold many membrane-bound enzymes, among them those of drug oxidation.
Sequence of CYP3A4 (P08684 whole entry): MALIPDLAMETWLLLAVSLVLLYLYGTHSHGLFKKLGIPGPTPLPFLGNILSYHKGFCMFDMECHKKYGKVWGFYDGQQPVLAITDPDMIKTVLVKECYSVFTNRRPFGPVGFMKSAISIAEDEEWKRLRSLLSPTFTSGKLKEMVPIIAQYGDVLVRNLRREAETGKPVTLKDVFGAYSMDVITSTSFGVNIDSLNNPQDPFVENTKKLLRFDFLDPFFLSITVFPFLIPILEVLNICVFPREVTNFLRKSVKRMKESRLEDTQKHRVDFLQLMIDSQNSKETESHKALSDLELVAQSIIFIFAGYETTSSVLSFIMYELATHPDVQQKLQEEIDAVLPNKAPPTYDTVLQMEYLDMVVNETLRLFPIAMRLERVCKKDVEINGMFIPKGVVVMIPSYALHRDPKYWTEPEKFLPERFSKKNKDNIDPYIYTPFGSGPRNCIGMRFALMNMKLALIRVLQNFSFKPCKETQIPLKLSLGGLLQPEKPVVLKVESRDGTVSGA

The next data set has as its target CYP2C19 (Homo sapiens, UniProt P33261). In words: Inhibition of CYP2C19 in human liver microsomes using S-mephenytoin as substrate at 10 uM preincubated for 5 min followed by NADPH addition measured after 120 mins by LC-MS/MS analysis relative to control. It counts as ADME, Microsome. As to conditions: probe S-mephenytoin, time 125 min.
The next data set has as its target T2, CYP1A2 (Homo sapiens, UniProt P05177).
T2 sequence (P05177 whole entry): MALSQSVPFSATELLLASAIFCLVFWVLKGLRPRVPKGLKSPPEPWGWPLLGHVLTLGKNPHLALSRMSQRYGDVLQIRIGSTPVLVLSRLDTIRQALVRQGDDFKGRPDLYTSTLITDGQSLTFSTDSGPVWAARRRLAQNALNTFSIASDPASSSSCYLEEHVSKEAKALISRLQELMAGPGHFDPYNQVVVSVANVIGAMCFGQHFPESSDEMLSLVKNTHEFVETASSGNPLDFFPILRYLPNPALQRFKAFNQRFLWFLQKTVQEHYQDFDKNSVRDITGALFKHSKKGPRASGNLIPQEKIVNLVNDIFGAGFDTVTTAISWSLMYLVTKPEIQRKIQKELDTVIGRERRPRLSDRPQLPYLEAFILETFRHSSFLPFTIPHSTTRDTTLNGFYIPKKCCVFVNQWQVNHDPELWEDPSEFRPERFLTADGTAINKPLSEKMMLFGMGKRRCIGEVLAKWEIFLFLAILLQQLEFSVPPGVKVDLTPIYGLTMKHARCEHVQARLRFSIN
In words: Inhibition of CYP1A2 in human liver microsomes using phenacetin as substrate at 10 uM preincubated for 5 min followed by NADPH addition measured after 120 mins by LC-MS/MS analysis relative to control. It counts as ADME, Microsome. As to conditions: probe phenacetin, time 125 min.

The next data set addresses P2Y purinoceptor 1 (Rattus norvegicus, UniProt P49651). In words: Antagonist activity at P2Y1 receptor in platelet-rich plasma of rat assessed as inhibition of ADP-induced cytosolic Ca2+ level pretreated for 5 mins followed by ADP addition by FLUO-4 AM dye based analysis. It counts as functional, cell-free.
For data set [14], the system named is Rattus norvegicus. In words: Neuroprotective activity in MCAO-induced brain damage Sprague-Dawley rat model assessed as tightly arranged hippocampal neurons at 2.5 to 10 mg/kg, iv administered immediately after arterial occlusion measured after 24 hrs by H and E staining based analysis. The conditions noted are these: dose 2.5-10 mg/kg. It is filed as functional, organism-based.

Calls of active or inactive are those of the source.

Sequence of CYP2C19 (P33261 whole entry): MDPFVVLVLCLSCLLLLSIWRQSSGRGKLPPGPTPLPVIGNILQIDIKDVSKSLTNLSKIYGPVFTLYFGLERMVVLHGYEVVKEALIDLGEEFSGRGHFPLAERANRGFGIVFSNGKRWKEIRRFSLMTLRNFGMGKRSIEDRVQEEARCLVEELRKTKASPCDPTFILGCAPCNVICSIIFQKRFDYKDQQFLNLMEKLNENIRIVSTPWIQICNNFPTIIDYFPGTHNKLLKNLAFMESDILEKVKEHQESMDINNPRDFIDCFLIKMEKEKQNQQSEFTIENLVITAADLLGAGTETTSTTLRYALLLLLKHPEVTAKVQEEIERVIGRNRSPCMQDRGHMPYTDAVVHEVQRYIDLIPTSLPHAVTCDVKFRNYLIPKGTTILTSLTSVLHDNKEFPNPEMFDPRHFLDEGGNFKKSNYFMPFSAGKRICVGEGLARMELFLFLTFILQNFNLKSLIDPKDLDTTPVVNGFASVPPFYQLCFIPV
Sequence of P2Y purinoceptor 1 (P49651 whole entry): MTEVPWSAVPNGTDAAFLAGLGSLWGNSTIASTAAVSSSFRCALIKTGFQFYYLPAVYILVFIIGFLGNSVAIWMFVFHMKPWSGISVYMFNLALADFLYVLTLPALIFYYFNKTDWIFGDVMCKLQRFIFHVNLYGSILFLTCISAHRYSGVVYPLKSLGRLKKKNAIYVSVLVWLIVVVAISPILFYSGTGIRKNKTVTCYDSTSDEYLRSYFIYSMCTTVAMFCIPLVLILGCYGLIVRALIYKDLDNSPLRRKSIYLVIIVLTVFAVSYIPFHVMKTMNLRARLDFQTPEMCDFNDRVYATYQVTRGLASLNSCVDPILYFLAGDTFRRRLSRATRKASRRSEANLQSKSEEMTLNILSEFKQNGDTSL

Regarding `N#Cc1cccc(Oc2nc(-c3cccc(C#N)c3)ncc2C(=O)O)c1`, the inhibition in vivo (commonly the drop in the measured response relative to a control, in per cent) at 10 mg/kg with Rattus norvegicus [1] came out at 37.2%. Besides, the IC50 (usually the concentration needed to halve the response being measured) in the data set on Plasma is 2.64 µM; on P2Y purinoceptor 1, 2.46 µM. Besides, the Activity entry in the data set with Rattus norvegicus [2] was “Active; Activity Was Less Than Bptu”; with Rattus norvegicus [10], “Dose-dependent-effect; Outperformed Edaravone And Hnw001 At 10 Mg/Kg”. In addition, the ED50 – broadly, the dose at which the effect has come halfway, by size or by number of responders – in the data set on Rattus norvegicus [3] was found to be 4.6 mg/kg. Moreover, in [4], the AUC (usually concentration integrated over time) came out at 75200 ng·h/mL. Also, the AUC(0-inf) (as a rule, total exposure, with the tail of the curve extrapolated) in data set [5] is 23800 ng·h/mL. Further, in data set [6] (po, 10 mg/kg, 24 h), the Tmax (commonly the time at which the peak concentration occurs) came to 6.12 min. For the same molecule, the result in the data set with Rattus norvegicus [7], in the data set on HT-22 and with Rattus norvegicus [14] was Active. The clearance (commonly the rate of elimination divided by the concentration) in data set [8] is 7 mL/min/kg. In [9], the mean residence time (MRT inf) (as a rule, a mean duration of stay, worked out from the concentration-time curve) amounted to 27.2 min. Also, the inhibition (in general, the change of the read-out against control, counted positive when it falls) at 2 h, 10 µM against CYP2A6 is -17.7%; against CYP3A4, 51.7%; on CYP2C19, 9.7%; at CYP1A2, 6.5%. The half-life (commonly the time needed for the level to fall by half in the phase considered) in data set [11] was 38.5 min. In addition, the bioavailability (usually the share of a dose that reaches the circulation, judged against a reference dose that is usually intravenous) in data set [12] turned out to be 4.1%. Moreover, the Kp in [13] is 0.25.
For `N#Cc1cccc(-c2nc(C(F)F)c(C(=O)O)n2OCc2csc(N)n2)c1`, the inhibition in vivo at 10 mg/kg in the data set on Rattus norvegicus [1] is 38.8%. Moreover, the results for the IC50 in the data set on Plasma and on P2Y purinoceptor 1 were 1.86 µM and 2.2 µM, respectively. The values for the Activity entry with Rattus norvegicus [2] and in the data set on Rattus norvegicus [10] were “Active; Activity Was Less Than Bptu” and “Dose-dependent-effect; Outperformed Edaravone And Hnw001 At 10 Mg/Kg”, respectively. In the data set on Rattus norvegicus [3], the ED50 stood at 8.39 mg/kg. In [4], this molecule returned an AUC of 14000 ng·h/mL. The molecule also showed an AUC(0-inf) in data set [5] of 11400 ng·h/mL. Also, the Tmax in data set [6] (male, Sprague-Dawley, read-out: Tmax) came to 10 min. The outcome in the data set with Rattus norvegicus [7], in the data set on HT-22 and in the data set with Rattus norvegicus [14] was Active. In addition, in data set [8], the clearance amounted to 14.6 mL/min/kg. This molecule also displayed an MRT inf in [9] of 7.5 min. In addition, the inhibition at 2 h, 10 µM against CYP2A6 is -13.5%; against CYP3A4 it was 55.7%; against CYP2C19, 27.4%; against CYP1A2, 9%. The same molecule gave a half-life in [11] of 14.9 min. Further, in data set [12], the bioavailability stood at 0.31%. Moreover, in [13], the Kp was 0.073.
